# Active and inactive are the calls of the source. The rule behind the calls is not given here.
# Tests used:
# THP-1 = test: Antiproliferative activity against human THP-1 cells harbouring wild type FLT3 assessed as inhibition of cell growth measured after 72 hrs by Celltiter-glo luminescent cell viability assay; format: functional, cell-based; details: THP-1, 72 h
# [1] = AUC (0 to infinity) in Sprague-Dawley rat at 20 mg/kg, po measured upto 48 hrs by LC-MS/MS analysis; format: ADME, organism-based; details: in vivo
# [2] = molecular target: Angiopoietin-1 receptor (Homo sapiens) (UniProt Q02763); test: Inhibition of human […] at 1 uM by Eurofins kinase assay
# Jurkat = test: Antiproliferative activity against human Jurkat cells assessed as inhibition of cell growth measured after 72 hrs by Celltiter-glo luminescent cell viability assay; format: functional, cell-based
# [3] = molecular target: ALK tyrosine kinase receptor (Homo sapiens) (UniProt Q9UM73); test: Inhibition of human ALK at 1 uM by Eurofins kinase assay
# [4] = Oral bioavailability in Sprague-Dawley rat at 20 mg/kg measured upto 48 hrs by LC-MS/MS analysis; format: ADME, organism-based; details: in vivo
# [5] = molecular target: Inhibitor of nuclear factor kappa-B kinase subunit beta (Homo sapiens) (UniProt O14920); test: Inhibition of human IKKB at 1 uM by Eurofins kinase assay
# [6] = Volume of distribution in Sprague-Dawley rat at 5 mg/kg, iv measured upto 48 hrs by LC-MS/MS analysis; format: ADME, organism-based; details: in vivo
# [7] = system: Receptor-type tyrosine-protein kinase FLT3 (Homo sapiens), P36888 [D835Y]; test: Inhibition of human FLT3 D835Y mutant at 1 uM by Eurofins kinase assay
# [8] = molecular target: Receptor-type tyrosine-protein kinase FLT3 (Homo sapiens, UniProt P36888, ITD); test: Inhibition of FLT3 ITD mutant (unknown origin) preincubated for 10 mins followed by addition of peptide solution by caliper mobility shift assay
# [9] = molecular target: Cyclin-dependent kinase 2/cyclin A (Homo sapiens) (UniProt P24941+P20248+P78396); test: Inhibition of human CDK2/cyclinA at 1 uM by Eurofins kinase assay; format: protein-complex assay
# MOLM-13 [10] = test: Induction of cell cycle arrest in human MOLM-13 cells assessed as accumulation of cells at G1 phase at 3 uM measured after 48 hrs by PI staining based flow cytometry analysis (reference value: 42.8%); format: functional
# [11] = Toxicity in female NSG mouse assessed as effect on heart at 20 to 40 mg/kg, po measured after 21 days by H and E staining based analysis; format: organism-based; details: in vivo, 504 h, dose 20-40 mg/kg, time 21 day
# [12] = molecular target: Dual specificity mitogen-activated protein kinase kinase 1 (Homo sapiens) (UniProt Q02750); test: Inhibition of human MEK1 at 1 uM by Eurofins kinase assay
# [13] = molecular target: Fibroblast growth factor receptor 3 (Homo sapiens) (UniProt P22607); test: Inhibition of human FGFR3 at 1 uM by Eurofins kinase assay
# [14] = molecular target: Death-associated protein kinase 1 (Homo sapiens) (UniProt P53355); test: Inhibition of human DAPK1 at 1 uM by Eurofins kinase assay
# MOLM-13 [15] = test: Induction of apoptosis in human MOLM-13 cells assessed as necrotic cells at 1 uM measured after 48 hrs by annexin-V and PI staining based flow cytometry analysis (reference value: 0.087%); format: functional
# [16] = molecular target: Tyrosine-protein kinase receptor UFO (Homo sapiens) (UniProt P30530); test: Inhibition of human AXL at 1 uM by Eurofins kinase assay
# [17] = molecular target: Tyrosine-protein kinase JAK2 (Homo sapiens) (UniProt O60674); test: Inhibition of human JAK2 at 1 uM by Eurofins kinase assay
# MOLM-13 [18] = test: Effect on STAT5 level in human MOLM-13 cells at 0.04 to 5 nM measured after 2 hrs by Western blot analysis; format: functional, cell-based; details: dose 0.04-5 nM
# [19] = system: Mast/stem cell growth factor receptor Kit (Homo sapiens), P10721 [V654A]; test: Inhibition of human c-kit V654A mutant at 1 uM by Eurofins kinase assay
# [20] = molecular target: Aurora kinase A (Homo sapiens) (UniProt O14965); test: Inhibition of human AuroraA at 1 uM by Eurofins kinase assay
# [21] = molecular target: Tyrosine-protein kinase BTK (Homo sapiens) (UniProt Q06187); test: Inhibition of human BTK at 1 uM by Eurofins kinase assay
# [22] = molecular target: Wee1-like protein kinase (Homo sapiens) (UniProt P30291); test: Inhibition of human Wee1 at 1 uM by Eurofins kinase assay
# [23] = Cmax in Sprague-Dawley rat at 5 mg/kg, iv measured upto 48 hrs by LC-MS/MS analysis; format: ADME, organism-based; details: in vivo
# [24] = AUC (0 to t) in Sprague-Dawley rat at 20 mg/kg, po measured upto 48 hrs by LC-MS/MS analysis; format: ADME, organism-based; details: in vivo
# [25] = Antiproliferative activity against human PBMC cells assessed as inhibition of cell growth measured after 72 hrs by Celltiter-glo luminescent cell viability assay; format: toxicity, cell-based
# [26] = Toxicity in female NSG mouse assessed as effect on body weight loss at 20 to 40 mg/kg, po measured after 21 days; format: organism-based; details: in vivo, 504 h, dose 20-40 mg/kg, time 21 day
# Homo sapiens = organism: Homo sapiens; test: Inhibition of human CDK1/cyclinB at 1 uM by Eurofins kinase assay
# [27] = Antiproliferative activity against mouse Ba/F3 FLT3-ITD cells assessed as inhibition of cell growth measured after 72 hrs by Celltiter-glo luminescent cell viability assay; format: functional, cell-based
# EBC-1 = test: Antiproliferative activity against human EBC-1 cells assessed as inhibition of cell growth measured after 72 hrs by Celltiter-glo luminescent cell viability assay; format: functional, cell-based; details: EBC-1, 72 h
# [28] = system: Receptor-type tyrosine-protein kinase FLT3 (Homo sapiens), P36888 [UNDEFINED MUTATION]; test: Inhibition of human FLT3-ITD at 1 uM by Eurofins kinase assay
# MOLM-13 [29] = test: Induction of apoptosis in human MOLM-13 cells assessed as late apoptotic cells at 3 uM measured after 48 hrs by annexin-V and PI staining based flow cytometry analysis (reference value: 2.28%); format: functional
# [30] = MRT (0 to t) in Sprague-Dawley rat at 20 mg/kg, po measured upto 48 hrs by LC-MS/MS analysis; format: ADME, organism-based; details: in vivo
# HL-60 = test: Antiproliferative activity against human HL-60 cells harbouring wild type FLT3 assessed as inhibition of cell growth measured after 72 hrs by Celltiter-glo luminescent cell viability assay; format: functional, cell-based; details: HL-60, 72 h
# [31] = molecular target: Fibroblast growth factor receptor 1 (Homo sapiens) (UniProt P11362); test: Inhibition of human FGFR1 at 1 uM by Eurofins kinase assay
# K562 = test: Antiproliferative activity against human K562 cells assessed as inhibition of cell growth measured after 72 hrs by Celltiter-glo luminescent cell viability assay; format: functional, cell-based; details: K562, 72 h
# [32] = Half life in Sprague-Dawley rat at 5 mg/kg, iv measured upto 48 hrs by LC-MS/MS analysis; format: ADME, organism-based; details: in vivo
# SBC-5 = test: Antiproliferative activity against human SBC-5 cells assessed as inhibition of cell growth measured after 72 hrs by Celltiter-glo luminescent cell viability assay; format: functional, cell-based; details: SBC-5, 72 h
# [33] = molecular target: Macrophage colony-stimulating factor 1 receptor (Homo sapiens, UniProt P07333); test: Inhibition of human FMS assessed as residual activity at 1 uM by Eurofins kinase assay relative to control
# Sequence of ALK tyrosine kinase receptor (Homo sapiens) (Q9UM73 19-1620 limits assumed): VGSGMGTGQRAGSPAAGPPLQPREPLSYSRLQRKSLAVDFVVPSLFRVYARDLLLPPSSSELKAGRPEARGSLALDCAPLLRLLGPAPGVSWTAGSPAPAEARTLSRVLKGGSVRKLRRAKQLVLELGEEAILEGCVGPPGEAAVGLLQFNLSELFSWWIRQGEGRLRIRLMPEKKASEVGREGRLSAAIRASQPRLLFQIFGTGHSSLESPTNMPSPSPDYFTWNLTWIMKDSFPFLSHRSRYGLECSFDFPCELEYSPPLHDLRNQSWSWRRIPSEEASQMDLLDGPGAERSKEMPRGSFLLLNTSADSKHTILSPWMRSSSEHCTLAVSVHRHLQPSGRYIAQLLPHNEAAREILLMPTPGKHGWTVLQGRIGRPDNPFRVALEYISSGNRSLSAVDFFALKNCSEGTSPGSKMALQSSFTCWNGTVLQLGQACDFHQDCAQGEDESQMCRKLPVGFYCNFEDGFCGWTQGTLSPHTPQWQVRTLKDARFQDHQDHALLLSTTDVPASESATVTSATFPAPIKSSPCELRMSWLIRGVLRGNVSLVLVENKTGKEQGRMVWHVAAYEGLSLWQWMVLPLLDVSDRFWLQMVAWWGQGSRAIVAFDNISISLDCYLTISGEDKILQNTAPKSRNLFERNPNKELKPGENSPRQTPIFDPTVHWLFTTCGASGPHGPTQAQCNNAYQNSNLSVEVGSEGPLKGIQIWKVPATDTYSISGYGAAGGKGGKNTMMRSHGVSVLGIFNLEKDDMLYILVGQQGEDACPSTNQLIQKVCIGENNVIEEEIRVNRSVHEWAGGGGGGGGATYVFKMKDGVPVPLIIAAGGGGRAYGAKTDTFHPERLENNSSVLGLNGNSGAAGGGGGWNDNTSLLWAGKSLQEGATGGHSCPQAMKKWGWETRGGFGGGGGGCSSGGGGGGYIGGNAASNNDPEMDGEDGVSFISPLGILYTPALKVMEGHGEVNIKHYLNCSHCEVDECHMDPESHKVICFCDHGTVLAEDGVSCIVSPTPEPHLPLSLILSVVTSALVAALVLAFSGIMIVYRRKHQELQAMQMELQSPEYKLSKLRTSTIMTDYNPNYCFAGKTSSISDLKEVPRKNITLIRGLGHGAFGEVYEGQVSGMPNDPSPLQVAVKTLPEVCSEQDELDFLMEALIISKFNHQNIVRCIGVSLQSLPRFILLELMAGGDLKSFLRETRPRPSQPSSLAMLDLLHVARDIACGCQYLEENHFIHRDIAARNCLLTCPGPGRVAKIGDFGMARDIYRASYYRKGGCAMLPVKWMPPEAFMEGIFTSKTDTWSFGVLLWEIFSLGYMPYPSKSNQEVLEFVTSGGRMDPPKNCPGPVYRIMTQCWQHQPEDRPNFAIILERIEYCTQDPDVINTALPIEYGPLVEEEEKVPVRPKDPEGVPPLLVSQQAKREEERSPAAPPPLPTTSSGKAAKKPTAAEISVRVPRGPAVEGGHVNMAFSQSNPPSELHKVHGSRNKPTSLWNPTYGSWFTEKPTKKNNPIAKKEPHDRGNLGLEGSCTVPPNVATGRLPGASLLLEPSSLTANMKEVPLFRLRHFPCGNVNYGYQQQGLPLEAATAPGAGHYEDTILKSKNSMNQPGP
# Sequence of Fibroblast growth factor receptor 3 (Homo sapiens) (P22607 23-806 limits assumed): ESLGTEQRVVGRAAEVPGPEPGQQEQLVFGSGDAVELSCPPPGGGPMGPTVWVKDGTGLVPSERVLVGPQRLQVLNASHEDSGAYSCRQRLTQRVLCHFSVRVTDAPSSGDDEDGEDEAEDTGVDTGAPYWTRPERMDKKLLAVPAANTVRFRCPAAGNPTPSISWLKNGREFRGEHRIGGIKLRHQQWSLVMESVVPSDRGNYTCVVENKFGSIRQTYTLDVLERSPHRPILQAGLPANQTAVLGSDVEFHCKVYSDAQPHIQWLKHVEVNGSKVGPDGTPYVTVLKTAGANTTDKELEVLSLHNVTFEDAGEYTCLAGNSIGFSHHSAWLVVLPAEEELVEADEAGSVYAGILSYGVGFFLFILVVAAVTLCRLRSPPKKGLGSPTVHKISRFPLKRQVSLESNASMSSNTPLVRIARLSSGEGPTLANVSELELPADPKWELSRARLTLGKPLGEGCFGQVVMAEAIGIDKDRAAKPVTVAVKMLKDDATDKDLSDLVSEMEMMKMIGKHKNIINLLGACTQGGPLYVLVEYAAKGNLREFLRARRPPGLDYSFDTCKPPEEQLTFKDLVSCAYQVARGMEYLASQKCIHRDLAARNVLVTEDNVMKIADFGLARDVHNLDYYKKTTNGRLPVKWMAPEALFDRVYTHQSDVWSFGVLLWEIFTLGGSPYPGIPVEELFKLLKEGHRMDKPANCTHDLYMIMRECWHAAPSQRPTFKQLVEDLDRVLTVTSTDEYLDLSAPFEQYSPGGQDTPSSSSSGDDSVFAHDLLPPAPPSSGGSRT
# Sequence of Death-associated protein kinase 1 (Homo sapiens) (P53355 whole entry, looked up): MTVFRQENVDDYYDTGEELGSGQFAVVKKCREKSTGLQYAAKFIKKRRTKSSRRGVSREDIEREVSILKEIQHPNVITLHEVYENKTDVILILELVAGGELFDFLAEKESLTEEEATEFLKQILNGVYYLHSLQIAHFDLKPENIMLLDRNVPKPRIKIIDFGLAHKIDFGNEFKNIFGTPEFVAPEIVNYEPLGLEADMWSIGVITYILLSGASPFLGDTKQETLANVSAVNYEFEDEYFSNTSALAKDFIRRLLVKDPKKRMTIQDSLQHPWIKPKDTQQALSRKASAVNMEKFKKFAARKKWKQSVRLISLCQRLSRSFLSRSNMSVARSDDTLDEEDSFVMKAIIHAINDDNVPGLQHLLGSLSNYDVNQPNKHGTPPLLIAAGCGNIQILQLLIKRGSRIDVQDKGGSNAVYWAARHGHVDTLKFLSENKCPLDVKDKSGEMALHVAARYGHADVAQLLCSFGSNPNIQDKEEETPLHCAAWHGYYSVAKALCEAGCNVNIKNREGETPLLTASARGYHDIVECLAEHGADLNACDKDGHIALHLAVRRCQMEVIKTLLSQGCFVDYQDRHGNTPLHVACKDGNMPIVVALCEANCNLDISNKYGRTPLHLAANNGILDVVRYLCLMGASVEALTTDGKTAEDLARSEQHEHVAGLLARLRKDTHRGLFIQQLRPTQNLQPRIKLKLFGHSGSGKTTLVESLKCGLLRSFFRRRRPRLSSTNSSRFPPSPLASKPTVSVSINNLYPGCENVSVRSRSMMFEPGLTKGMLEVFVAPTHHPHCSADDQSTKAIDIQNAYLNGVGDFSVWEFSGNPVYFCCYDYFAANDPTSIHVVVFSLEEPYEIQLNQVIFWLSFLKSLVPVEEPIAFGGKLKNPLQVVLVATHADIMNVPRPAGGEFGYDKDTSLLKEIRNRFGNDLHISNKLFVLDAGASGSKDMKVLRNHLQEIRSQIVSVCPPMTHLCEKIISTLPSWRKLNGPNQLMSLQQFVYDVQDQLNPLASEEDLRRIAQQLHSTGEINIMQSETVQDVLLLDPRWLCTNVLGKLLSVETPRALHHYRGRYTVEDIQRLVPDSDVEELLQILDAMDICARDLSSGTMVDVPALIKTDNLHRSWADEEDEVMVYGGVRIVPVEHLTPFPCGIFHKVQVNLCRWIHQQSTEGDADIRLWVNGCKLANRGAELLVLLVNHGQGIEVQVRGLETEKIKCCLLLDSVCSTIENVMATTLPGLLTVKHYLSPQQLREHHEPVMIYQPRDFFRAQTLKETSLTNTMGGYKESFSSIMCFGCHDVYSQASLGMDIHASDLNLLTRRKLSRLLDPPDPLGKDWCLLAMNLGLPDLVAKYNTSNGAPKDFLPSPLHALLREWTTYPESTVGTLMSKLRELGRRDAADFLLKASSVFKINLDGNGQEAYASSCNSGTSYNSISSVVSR
# Sequence of Tyrosine-protein kinase JAK2 (Homo sapiens) (O60674 whole entry): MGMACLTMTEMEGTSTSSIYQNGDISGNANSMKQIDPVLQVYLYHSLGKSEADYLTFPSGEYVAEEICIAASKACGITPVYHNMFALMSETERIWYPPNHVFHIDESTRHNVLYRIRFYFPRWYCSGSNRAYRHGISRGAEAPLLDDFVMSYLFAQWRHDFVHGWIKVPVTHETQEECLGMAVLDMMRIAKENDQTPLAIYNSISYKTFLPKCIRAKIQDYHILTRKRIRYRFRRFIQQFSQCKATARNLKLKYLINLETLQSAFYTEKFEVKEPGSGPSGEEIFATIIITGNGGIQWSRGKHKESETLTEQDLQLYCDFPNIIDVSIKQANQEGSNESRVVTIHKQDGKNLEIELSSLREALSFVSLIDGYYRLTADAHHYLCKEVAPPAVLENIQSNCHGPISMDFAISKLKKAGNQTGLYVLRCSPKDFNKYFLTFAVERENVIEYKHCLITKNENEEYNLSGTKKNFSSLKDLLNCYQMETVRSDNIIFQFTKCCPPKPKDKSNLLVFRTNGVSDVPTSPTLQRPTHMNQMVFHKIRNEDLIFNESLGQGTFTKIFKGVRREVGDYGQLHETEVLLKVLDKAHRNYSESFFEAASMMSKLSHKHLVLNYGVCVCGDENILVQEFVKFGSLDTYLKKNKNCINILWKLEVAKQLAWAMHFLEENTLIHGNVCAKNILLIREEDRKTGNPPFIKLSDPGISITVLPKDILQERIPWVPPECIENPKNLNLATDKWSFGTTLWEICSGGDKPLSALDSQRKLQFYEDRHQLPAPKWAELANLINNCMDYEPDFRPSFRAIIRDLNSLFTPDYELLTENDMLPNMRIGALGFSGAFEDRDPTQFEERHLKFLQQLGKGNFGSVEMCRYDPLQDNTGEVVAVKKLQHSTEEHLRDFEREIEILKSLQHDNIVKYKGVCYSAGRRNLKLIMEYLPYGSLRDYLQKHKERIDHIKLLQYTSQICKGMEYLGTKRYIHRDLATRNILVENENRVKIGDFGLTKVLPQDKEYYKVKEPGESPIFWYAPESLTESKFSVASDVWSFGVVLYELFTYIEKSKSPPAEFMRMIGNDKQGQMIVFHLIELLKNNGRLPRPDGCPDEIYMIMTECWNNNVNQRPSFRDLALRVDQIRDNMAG
structure (smiles),measurement,setting,value
O=C(Nc1ccc(Oc2ccnc(NC(=O)N3CC(O)C3)c2)c(F)c1)c1cn(-c2cccnc2)nn1,IC50,THP-1,10.8 µM
same,AUC(0-inf),[1],46100 ng·h/mL
same,inhibition,[2],inactive
same,IC50,Jurkat,> 30 µM
same,inhibition,[3],inactive
same,bioavailability,[4],19.2%
same,inhibition,[5],inactive
same,Vd,[6],0.301 L/kg
same,inhibition,[7],inactive
same,IC50,[8],0.069 µM
same,inhibition,[9],inactive
same,Activity,MOLM-13 [10],89.9%
same,Activity,[11],Non-toxic
same,inhibition,[12],inactive
same,inhibition,[13],inactive
same,inhibition,[14],inactive
same,Activity,MOLM-13 [15],0.26%
same,inhibition,[16],inactive
same,inhibition,[17],inactive
same,Activity,MOLM-13 [18],Not active; Compound Barely Affect Stat5 Level
same,inhibition,[19],inactive
same,inhibition,[20],inactive
same,inhibition,[21],inactive
same,inhibition,[22],inactive
same,Cmax,[23],26900 ng/mL
same,AUC(0-t) at 48 h,[24],45600 ng·h/mL
same,IC50 at 72 h,[25],> 30 µM
same,Activity,[26],Non-toxic
same,inhibition,Homo sapiens,inactive
same,IC50,[27],0.085 µM
same,IC50,EBC-1,> 30 µM
same,inhibition,[28],inactive
same,Activity,MOLM-13 [29],11%
same,MRT last at 48 h,[30],4.49 h
same,IC50,HL-60,7.7 µM
same,inhibition,[31],inactive
same,IC50,K562,16.6 µM
same,half-life,[32],2.46 h
same,IC50,SBC-5,> 30 µM
same,Activity,[33],22%

# From ChEMBL document CHEMBL6074715, “Discovery of pyridine-based derivatives as FLT3 inhibitors for the treatment of acute myeloid leukemia” (Eur J Med Chem, 2025)
